The text below walks through data of ChEMBL document CHEMBL3621135 (ACS Med Chem Lett, 2015).

The target in data set [1] is T1, Tyrosine-protein kinase JAK3 (Homo sapiens, UniProt P52333).
T1 sequence (P52333 whole entry): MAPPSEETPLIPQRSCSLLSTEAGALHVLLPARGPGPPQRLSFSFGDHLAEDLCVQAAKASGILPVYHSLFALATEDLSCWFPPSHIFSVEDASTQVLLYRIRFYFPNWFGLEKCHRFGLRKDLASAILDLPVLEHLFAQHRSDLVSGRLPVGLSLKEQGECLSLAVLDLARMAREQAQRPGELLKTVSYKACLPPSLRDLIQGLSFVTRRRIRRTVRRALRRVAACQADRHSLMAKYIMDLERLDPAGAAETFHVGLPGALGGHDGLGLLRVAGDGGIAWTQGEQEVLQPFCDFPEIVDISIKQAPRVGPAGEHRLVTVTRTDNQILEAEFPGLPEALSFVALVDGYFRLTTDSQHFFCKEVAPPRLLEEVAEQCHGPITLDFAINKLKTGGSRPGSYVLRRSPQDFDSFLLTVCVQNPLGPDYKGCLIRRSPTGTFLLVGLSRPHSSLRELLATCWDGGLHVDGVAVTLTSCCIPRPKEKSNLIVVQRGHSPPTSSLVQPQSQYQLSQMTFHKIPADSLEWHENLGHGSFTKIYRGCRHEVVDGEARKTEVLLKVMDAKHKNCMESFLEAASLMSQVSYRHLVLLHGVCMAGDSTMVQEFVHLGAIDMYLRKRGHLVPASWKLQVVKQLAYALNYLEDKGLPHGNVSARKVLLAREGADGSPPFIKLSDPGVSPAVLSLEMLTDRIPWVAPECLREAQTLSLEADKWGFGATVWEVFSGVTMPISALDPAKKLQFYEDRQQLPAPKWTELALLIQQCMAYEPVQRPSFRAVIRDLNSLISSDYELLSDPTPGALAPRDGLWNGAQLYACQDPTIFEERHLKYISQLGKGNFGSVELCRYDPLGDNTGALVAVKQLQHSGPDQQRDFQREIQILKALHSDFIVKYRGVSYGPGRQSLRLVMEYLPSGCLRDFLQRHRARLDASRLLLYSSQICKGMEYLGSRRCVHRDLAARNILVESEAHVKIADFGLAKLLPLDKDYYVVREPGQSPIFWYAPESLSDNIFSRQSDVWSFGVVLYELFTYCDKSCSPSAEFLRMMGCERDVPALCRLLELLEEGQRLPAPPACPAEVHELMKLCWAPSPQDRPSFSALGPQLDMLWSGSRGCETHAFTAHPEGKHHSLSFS
As to the kind of experiment: Inhibition of recombinant JAK3 (unknown origin) using 5-FAM-KKKKEEIYFFFG-OH substrate and ATP incubated for 180 mins by […] method.

Data set [2] can be described thus: Antiproliferative activity against human SET2 cells incubated for 72 hrs by [3H] thymidine incorporation assay. It counts as functional, cell-based. Particulars: SET-2.
Data set [3] concerns the target Tyrosine-protein kinase JAK2 (Homo sapiens, UniProt O60674). In words: Inhibition of recombinant JAK2 (unknown origin) using 5-FAM-KKKKEEIYFFFG-OH substrate and ATP incubated for 180 mins by […] method.
Data set [4] concerns the target Non-receptor tyrosine-protein kinase TYK2 (Homo sapiens, UniProt P29597). As to the kind of experiment: Inhibition of recombinant TYK2 (unknown origin) by scintillation counting method.
The target of data set [5] is Tyrosine-protein kinase JAK1 (Homo sapiens, UniProt P23458). As to the kind of experiment: Inhibition of recombinant JAK1 (unknown origin) using 5-FAM-KKKKEEIYFFFG-OH substrate and ATP incubated for 180 mins by […] method.
In another data set the target is hERG (Homo sapiens, UniProt Q12809). As to the kind of experiment: Inhibition of human ERG channel at 30 uM.
The next data set concerns Liver microsome. As to the kind of experiment: Drug metabolism in human liver microsomes assessed as thiourea formation at 10 uM in presence of NADPH by HPLC/UV/MS method. The class given is ADME.

Sequence of Tyrosine-protein kinase JAK1 (P23458 whole entry): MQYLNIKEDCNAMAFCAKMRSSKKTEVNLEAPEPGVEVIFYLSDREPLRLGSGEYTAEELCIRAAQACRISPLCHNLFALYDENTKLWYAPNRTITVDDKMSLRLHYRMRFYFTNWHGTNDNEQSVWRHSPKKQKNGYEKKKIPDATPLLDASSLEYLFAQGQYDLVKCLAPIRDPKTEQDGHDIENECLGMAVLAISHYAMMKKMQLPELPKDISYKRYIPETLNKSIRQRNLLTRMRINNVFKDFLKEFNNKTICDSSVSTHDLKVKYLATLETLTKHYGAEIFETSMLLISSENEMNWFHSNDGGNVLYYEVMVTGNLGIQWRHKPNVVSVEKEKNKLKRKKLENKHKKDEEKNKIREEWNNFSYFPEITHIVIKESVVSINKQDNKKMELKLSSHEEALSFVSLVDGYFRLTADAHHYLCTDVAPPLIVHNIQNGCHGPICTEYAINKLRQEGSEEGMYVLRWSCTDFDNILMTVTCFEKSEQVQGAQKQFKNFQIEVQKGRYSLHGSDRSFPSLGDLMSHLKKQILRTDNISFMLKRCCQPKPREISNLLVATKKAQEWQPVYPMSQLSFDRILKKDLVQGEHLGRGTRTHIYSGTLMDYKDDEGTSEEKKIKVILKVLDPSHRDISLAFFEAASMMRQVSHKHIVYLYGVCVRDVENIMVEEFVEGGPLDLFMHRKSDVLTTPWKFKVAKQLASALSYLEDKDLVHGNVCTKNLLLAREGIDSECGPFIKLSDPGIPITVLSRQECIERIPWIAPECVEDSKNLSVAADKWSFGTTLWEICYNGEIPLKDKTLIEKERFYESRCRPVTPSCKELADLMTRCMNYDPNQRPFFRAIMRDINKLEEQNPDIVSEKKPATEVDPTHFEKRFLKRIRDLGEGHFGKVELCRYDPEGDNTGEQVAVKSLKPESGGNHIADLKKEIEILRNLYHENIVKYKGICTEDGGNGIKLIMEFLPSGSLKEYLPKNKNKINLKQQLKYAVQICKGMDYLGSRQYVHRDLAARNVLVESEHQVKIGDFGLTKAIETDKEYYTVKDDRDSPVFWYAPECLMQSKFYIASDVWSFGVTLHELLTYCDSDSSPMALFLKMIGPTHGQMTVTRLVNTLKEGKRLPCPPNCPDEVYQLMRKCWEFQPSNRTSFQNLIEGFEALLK
Sequence of Tyrosine-protein kinase JAK2 (O60674 whole entry): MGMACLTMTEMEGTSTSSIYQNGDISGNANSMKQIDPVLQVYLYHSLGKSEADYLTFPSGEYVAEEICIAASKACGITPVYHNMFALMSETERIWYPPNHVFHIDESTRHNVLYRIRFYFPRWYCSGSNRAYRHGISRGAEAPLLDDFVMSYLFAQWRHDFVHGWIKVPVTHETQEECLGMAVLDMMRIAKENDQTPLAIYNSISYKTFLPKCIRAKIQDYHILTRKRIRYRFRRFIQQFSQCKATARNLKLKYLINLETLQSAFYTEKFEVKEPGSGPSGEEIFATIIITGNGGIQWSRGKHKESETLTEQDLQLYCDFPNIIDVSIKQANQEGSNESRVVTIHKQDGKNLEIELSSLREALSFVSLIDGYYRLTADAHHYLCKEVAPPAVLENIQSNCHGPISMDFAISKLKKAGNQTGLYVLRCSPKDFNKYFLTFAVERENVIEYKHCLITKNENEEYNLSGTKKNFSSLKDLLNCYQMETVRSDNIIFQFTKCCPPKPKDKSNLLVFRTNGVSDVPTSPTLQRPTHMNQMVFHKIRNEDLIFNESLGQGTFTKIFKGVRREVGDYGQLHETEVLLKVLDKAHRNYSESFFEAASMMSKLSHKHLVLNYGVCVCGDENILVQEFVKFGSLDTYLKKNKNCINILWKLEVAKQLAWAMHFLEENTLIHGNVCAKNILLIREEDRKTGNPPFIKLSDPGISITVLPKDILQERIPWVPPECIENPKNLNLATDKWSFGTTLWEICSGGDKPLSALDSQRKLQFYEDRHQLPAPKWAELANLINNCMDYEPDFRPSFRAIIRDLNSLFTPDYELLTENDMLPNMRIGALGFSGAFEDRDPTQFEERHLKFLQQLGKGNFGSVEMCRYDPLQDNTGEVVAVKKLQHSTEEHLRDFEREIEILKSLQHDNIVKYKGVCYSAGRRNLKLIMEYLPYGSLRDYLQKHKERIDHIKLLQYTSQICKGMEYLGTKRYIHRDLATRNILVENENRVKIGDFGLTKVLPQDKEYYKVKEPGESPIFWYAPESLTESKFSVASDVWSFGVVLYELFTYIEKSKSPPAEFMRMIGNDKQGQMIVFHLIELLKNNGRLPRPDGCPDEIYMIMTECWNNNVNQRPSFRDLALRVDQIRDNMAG
Sequence of Non-receptor tyrosine-protein kinase TYK2 (P29597 whole entry): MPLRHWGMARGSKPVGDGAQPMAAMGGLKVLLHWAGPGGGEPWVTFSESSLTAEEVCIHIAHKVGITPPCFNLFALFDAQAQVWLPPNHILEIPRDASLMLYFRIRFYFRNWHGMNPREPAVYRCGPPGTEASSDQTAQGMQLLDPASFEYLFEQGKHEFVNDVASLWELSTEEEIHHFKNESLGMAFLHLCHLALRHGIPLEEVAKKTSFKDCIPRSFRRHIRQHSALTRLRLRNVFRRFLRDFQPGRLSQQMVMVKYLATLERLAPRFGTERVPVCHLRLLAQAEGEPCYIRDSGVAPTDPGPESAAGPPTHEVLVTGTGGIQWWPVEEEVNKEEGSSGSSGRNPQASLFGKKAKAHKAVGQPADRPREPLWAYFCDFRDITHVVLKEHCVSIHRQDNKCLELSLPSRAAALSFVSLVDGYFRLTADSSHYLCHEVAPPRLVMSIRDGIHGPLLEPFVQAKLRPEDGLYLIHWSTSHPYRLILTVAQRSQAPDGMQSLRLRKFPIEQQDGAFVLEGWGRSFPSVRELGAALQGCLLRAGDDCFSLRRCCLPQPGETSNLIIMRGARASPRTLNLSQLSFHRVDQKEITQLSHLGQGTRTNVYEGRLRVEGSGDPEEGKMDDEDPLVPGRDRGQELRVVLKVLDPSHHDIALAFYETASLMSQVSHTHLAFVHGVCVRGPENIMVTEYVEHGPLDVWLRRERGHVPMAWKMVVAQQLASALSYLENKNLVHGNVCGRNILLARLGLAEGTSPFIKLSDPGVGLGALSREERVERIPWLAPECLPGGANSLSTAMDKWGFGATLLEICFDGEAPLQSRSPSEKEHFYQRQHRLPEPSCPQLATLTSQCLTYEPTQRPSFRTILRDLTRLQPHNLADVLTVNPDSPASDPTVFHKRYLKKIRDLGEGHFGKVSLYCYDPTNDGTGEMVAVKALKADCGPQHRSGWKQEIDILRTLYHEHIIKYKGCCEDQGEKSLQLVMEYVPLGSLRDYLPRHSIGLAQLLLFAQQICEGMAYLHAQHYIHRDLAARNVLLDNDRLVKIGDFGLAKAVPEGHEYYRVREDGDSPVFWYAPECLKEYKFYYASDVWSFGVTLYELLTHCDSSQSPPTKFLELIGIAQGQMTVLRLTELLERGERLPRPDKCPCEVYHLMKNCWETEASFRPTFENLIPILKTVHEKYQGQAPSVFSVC
Sequence of hERG (Q12809 whole entry): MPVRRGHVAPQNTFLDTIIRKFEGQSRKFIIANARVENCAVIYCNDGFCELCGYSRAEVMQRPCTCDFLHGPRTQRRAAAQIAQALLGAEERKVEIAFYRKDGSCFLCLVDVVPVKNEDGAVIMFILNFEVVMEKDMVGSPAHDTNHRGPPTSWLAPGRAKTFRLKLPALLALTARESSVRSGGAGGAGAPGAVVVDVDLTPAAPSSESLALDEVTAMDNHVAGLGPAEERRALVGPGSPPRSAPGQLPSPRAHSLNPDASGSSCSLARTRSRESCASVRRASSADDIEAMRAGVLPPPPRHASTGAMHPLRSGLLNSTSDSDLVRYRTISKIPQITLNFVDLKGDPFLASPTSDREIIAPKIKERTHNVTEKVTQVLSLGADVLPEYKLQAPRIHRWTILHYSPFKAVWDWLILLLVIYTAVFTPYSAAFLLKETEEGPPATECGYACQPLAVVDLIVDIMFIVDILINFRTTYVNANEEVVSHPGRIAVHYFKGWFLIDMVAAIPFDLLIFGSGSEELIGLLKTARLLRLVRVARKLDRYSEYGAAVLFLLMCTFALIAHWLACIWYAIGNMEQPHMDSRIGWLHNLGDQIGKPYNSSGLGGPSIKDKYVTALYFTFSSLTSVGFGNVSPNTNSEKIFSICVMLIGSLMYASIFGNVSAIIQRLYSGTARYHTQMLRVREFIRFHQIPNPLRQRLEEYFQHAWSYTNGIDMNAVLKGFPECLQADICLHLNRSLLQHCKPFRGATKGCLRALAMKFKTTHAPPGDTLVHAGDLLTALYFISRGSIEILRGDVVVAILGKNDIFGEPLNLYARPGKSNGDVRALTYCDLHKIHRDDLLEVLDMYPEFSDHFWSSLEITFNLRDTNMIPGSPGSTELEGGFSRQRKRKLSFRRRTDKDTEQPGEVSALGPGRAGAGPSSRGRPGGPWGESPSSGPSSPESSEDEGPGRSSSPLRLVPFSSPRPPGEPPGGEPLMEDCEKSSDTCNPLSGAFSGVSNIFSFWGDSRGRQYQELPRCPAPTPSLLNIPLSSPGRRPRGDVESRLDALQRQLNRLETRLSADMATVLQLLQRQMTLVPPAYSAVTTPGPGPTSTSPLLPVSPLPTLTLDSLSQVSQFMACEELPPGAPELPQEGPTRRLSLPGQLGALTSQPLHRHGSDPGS

`CCn1c(C(=O)N(C2CC2)C2CC2)cc2c3c(ncn3C)c(Nc3cc(C)nn3C)nc21`: the IC50 is 5000 nM in data set [1]; > 2000 nM in data set [2]; 230 nM in data set [3]; 2300 nM in data set [4]; 540 nM in data set [5].

In the case of `CCn1nc(Nc2nc3c(cc(C(=O)N(C4CC4)C4CC4)n3CC)c3c2ncn3C)cc1C`, the IC50 in data set [1] came to 210 nM; in data set [2] it was 55 nM; in data set [4], 220 nM; in data set [5], 330 nM. Further, the inhibition at 30 µM on hERG is 75%.

For `CCn1c(C(=O)N(C2CC2)C2CC2)cc2c3c(ncn3C)c(Nc3nc(C)c(C(=O)N4CCS(=O)(=O)CC4)s3)nc21`, the IC50 in data set [1] worked out at 31 nM; in data set [2], 330 nM; in data set [3], 0.7 nM; in data set [5], 48 nM.

`CCn1c(C(=O)N(C2CC2)C2CC2)cc2c3c(ncn3C)c(Nc3nc(C)c(S(C)(=O)=O)s3)nc21`: the IC50 in data set [1] came out at 52 nM; in data set [2], 51 nM; in data set [5], 40 nM. Also, the Drug metabolism entry with Liver microsome was “metabolite_detected”.

As for `CCn1c(C(=O)N(C2CC2)C2CC2)cc2c3c(ncn3C)c(Nc3cc(C)[nH]n3)nc21`, the IC50 came to 87 nM in data set [1]; 53 nM in data set [2]; 1.2 nM in data set [3]; 1.9 nM in data set [4]; 16 nM in data set [5].

As to `CCn1c(C(=O)N(C2CC2)C2CC2)cc2c3c(ncn3C)c(Nc3nc(C)n(C)n3)nc21`, the IC50 came out at 3800 nM in data set [1], 1300 nM in data set [2], 33 nM in data set [3] and 6000 nM in data set [5].

On to `CCc1nc(Nc2nc3c(cc(C(=O)N(C4CC4)C4CC4)n3CC)c3c2ncn3C)sc1C`, for which the IC50 worked out at 460 nM in data set [1], 92 nM in data set [2], 1.4 nM in data set [3] and 250 nM in data set [5].

In the case of `CCn1c(C(=O)N(C2CC2)C2CC2)cc2c3c(ncn3C)c(Nc3nc(C)c(C(=O)NC)s3)nc21`, the IC50 in data set [1] stood at 19 nM; in data set [2], 120 nM; in data set [3], 0.9 nM; in data set [5], 19 nM. In the data set on Liver microsome, the Drug metabolism entry is listed as “metabolite_detected”.

Turning to `CCn1c(C(=O)N(C2CC2)C2CC2)cc2c3c(ncn3C)c(Nc3nc(C(=O)NC)c(C)s3)nc21`, the IC50 turned out to be 49 nM in data set [1], 100 nM in data set [2], 3.1 nM in data set [3] and 22 nM in data set [5]. Further, the Drug metabolism result in the data set with Liver microsome is “metabolite_detected”.
